Test results from PubChem BioAssay AID2060511 (Molecular Pharmacology Branch, DTP, NCI, 2025).
“And” between values parts separate entries of the source, which are not always exact repeats. Equal entries are not always repeated.

Test system: 422866-222-R5-J1-PDC spheroids with HUVEC/MSC, viability
Test: Anticancer human tumor 422866-222-R5-J1-PDC patient-derived pancreatic adenocarcinoma cell line growth inhibition [GQUAD]
Settings: for viability, T/C: stronger effect = lower value
Excerpt: DNA G-quadruplex Stabilizer Agents in Combinations in Complex Spheroids
A high-throughput screen of multi-cell type tumor spheroids was designed to identify active combinations of DNA G-quadruplex stabilizer agents and targeted small molecules. Complex spheroids include a stromal component modeled by human endothelial cells (HUVEC) and fibroblasts modeled by human mesenchymal stem cells (MSCs). The concentration ranges selected for each drug and investigational agent were based upon clinically achievable concentrations if the clinical Cmax of the agent was known.
Compounds. The drugs and investigational agents: pidnarulex (CX-5461; NSC782164), APTO-253 (NSC789042), BRACO-19 (NSC847499), peposertib (NSC802822), ceralasertib (NSC780249), elimusertib (NSC800525), camonsertib (NSC841442), AZD-1390 (NSC803789), olaparib (NSC753686), talazoparib (NSC767125), ART-558 (NSC835418), sotorasib (NSC818433), MRTX-1133 (NSC836407), SN-38 (NSC673596), topotecan (NSC609699), etoposide (NSC141540), doxorubicin (NSC123127), gemcitabine (NSC613327), 5-fluorouracil (NSC19893), paclitaxel (NSC125973), vemurafenib (NSC761431), panobinostat (NSC761190), R-306465 (JNJ-16241199; NSC773264), adavosertib (NSC754352), TP-3654 (NSC805149), carboplatin (NSC241240), KSQ-4279 (NSC840948), and staurosporine (NSC755774) were obtained from the National Cancer Institute (NCI) Developmental Therapeutics Program Chemical Repository (34). The FDA-approved anticancer drug set is available from the NCI Developmental Therapeutics Program. […] The stock solutions were prepared in dimethyl sulfoxide (DMSO, Sigma-Aldrich, St. Louis, MO, cat. D2650) at 800-fold the tested concentration and stored at -70 degrees C prior to their use. All drugs and investigational agents were tested over a range starting from a high concentration at or near the clinical Cmax and decreasing in half-log increments. If the clinical Cmax for an agent had not been determined, the highest concentration tested was 10 microM.
2.3 Cell Culture. All cells were maintained in an incubator at 37 degrees C and 5% CO2 with 95% humidity. The PDC lines were cultured according to standard operating procedures established by the NCI PDMR. All PDCs were thawed and cultured in Matrigel-coated flasks prepared with a working solution of 1X Ham's F-12 nutrient mix, without supplementation (Invitrogen, cat. 11765054), 100 U/mL penicillin-streptomycin (Invitrogen, cat. 15140122), and 2.5% Matrigel (Corning Inc., cat. 354248) for the first three passages. The 857933-349-R-J2-PDC line was cultured in 6C/Colon 1B media, which includes advanced DMEM/F-12 (Thermo Fisher Scientific, cat. 12634028), 10 mM HEPES (Thermo Fisher Scientific, cat. 15630080), 1X GlutaMAX supplement (Thermo Fisher Scientific, cat. 35050061), 0.1 mg/mL primocin (InvivoGen, cat. ant-pm-2), 10% defined fetal bovine serum, heat inactivated (HyClone Laboratories Inc., cat. SH30070.03HI), 50% L-WRN conditioned media (ATCC, cat. CRL-3276), 1.25 mM N-Acetyl-L-cysteine (Sigma-Aldrich, cat. A9165), 10 mM nicotinamide (Sigma-Aldrich, cat. N0636), 1X B-27 supplement (Thermo Fisher Scientific, cat. 17504044), 1X N-2 supplement (Thermo Fisher Scientific, cat. 17502048), 10 microM Y-27632 dihydrochloride (Tocris Bioscience, cat. 1254), and 50 ng/mL human EGF recombinant protein (Thermo Fisher Scientific, cat. PHG0311). The 485176-168-R4-J1-PDC line was cultured in Panc media, which includes all 6C/Colon 1B media components plus 100 ng/mL human FGF-10 (Thermo Fisher Scientific, cat. 100-26), 500 nM SB-431542 (Selleckchem, cat. S1067), and gastrin (Tocris, cat. 3006).
[…]

[1] = compound alone, run of 04/16/2024
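Also: spheroids exposed to compounds for seven days before reading.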
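For viability, T/C in this document: percent viability relative to DMSO vehicle control taken as 100%.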

SMILES: COc1cc(C2c3cc4c(cc3C(OC3OC5COC(C)OC5C(O)C3O)C3COC(=O)C23)OCO4)cc(OC)c1O (stereo not given)
- viability, T/C (compound 0.0316 µM): 102% and 106% and 103%
- viability, T/C (compound 0.1 µM): 84% and 84.1% and 90.4%
- viability, T/C (compound 0.316 µM): 72.1% and 81.7% and 80.7%
- viability, T/C (compound 1 µM): 62.7% and 51.7% and 55.9%
- viability, T/C (compound 3.16 µM): 40.4% and 40.3% and 45%
- viability, T/C (compound 10 µM): 38% and 35.9% and 40.2%
- IC50 (curve of compound): 2160 nM and 1550 nM and 2000 nM

SMILES: COc1ccc([C@@H](O)c2cc(-c3ncnc4cc(N5CCOCC5)ccc34)c(F)cc2Cl)nn1
- viability, T/C (compound 0.0316 µM): 82.4% and 103% and 110%
- viability, T/C (compound 0.1 µM): 76.2% and 78.4% and 99%
- viability, T/C (compound 0.316 µM): 81.6% and 86% and 90.4%
- viability, T/C (compound 1 µM): 63.3% and 76.9% and 70.8%
- viability, T/C (compound 3.16 µM): 51.5% and 44.1% and 60.7%
- viability, T/C (compound 10 µM): 36.9% and 35.1% and 47.2%
- IC50 (curve of compound): 3150 nM and 2620 nM and 7880 nM

SMILES: COc1cccc2c1C(=O)c1c(O)c3c(c(O)c1C2=O)CC(O)(C(=O)CO)CC3OC1CC(N)C(O)C(C)O1 (stereo not given)
- viability, T/C (compound 0.0316 µM): 94.3% and 90.9% and 92.6%
- viability, T/C (compound 0.1 µM): 58.5% and 62.5% and 78.8%
- viability, T/C (compound 0.316 µM): 61.9% and 57.1% and 68.5%
- viability, T/C (compound 1 µM): 41.8% and 51.2% and 47.5%
- viability, T/C (compound 3.16 µM): 35.5% and 35.9% and 29.4%
- viability, T/C (compound 10 µM): 32% and 40.5% and 31.3%
- IC50 (curve of compound): 421 nM and 585 nM and 812 nM

SMILES: COc1ncnc(C2CC2)c1-c1ncc2cnn(Cc3ccc(-c4nc(C(F)(F)F)cn4C(C)C)cc3)c2n1
- viability, T/C (compound 0.0316 µM): 91.6% and 95% and 118%
- viability, T/C (compound 0.1 µM): 94% and 105% and 97%
- viability, T/C (compound 0.316 µM): 92.3% and 121% and 97.5%
- viability, T/C (compound 1 µM): 79.7% and 102% and 98.1%
- viability, T/C (compound 3.16 µM): 97% and 60.6% and 99.1%
- viability, T/C (compound 10 µM): 117% and 43.5% and 105%
- IC50 (curve of compound): > 10000 nM and 6450 nM

SMILES: Cc1[nH]c2ccc(F)cc2c1-c1nc2c3cccnc3c3ncccc3c2[nH]1
- viability, T/C (compound 3.16 µM): 84.5% [middle of 12 runs]
- IC50 [1]: > 10000 nM
- IC50 (compound alone, run of 04/22/2024): > 10000 nM

SMILES: Cc1[nH]c2ccccc2c1CCNCc1ccc(/C=C/C(=O)NO)cc1
- viability, T/C (compound 0.000999 µM): 94.9% and 82.3% and 89.6%
- viability, T/C (compound 0.00316 µM): 90.6% and 106% and 89.9%
- viability, T/C (compound 0.00999 µM): 110% and 121% and 100%
- viability, T/C (compound 0.0316 µM): 95.7% and 94.4% and 76.5%
- viability, T/C (compound 0.0999 µM): 88.5% and 62.9% and 66.2%
- viability, T/C (compound 0.316 µM): 86.2% and 55.7% and 46.1%
- IC50 (curve of compound): > 316 nM and 254 nM

SMILES: Cc1cccc(N(C)C(=O)C2C(O)CCN2c2nc(C)cc(C(F)(F)F)c2C#N)c1 (stereo not given)
- viability, T/C (compound 0.0316 µM): 96.3% and 97.3% and 82.4%
- viability, T/C (compound 0.1 µM): 103% and 95.9% and 89.9%
- viability, T/C (compound 0.316 µM): 103% and 102% and 96.2%
- viability, T/C (compound 1 µM): 101% and 96.9% and 109%
- viability, T/C (compound 3.16 µM): 99.9% and 77.2% and 105%
- viability, T/C (compound 10 µM): 108% and 97.5% and 98%
- IC50 (curve of compound): > 10000 nM

SMILES: Cc1cnc(CNC(=O)c2c(=O)c3ccc(N4CCCN(C)CC4)nc3n3c2sc2ccccc23)cn1
- viability, T/C (compound 0.1 µM): 96.7% [middle of 12 runs]
- viability, T/C (compound 0.316 µM): 90.4% [middle of 12 runs]
- viability, T/C (compound 1 µM): 85.3% [middle of 12 runs]
- viability, T/C (compound 3.16 µM): 87.8% [middle of 12 runs]
- viability, T/C (compound 10 µM): 81% [middle of 11 runs]
- IC50 [1]: > 10000 nM

SMILES: Cn1ncnc1[C@H]1c2n[nH]c(=O)c3cc(F)cc(c23)N[C@@H]1c1ccc(F)cc1
- viability, T/C (compound 0.000999 µM): 91.3% and 88.8% and 87.1%
- viability, T/C (compound 0.00316 µM): 107% and 96.2% and 77.8%
- viability, T/C (compound 0.00999 µM): 96.3% and 99.6% and 107%
- viability, T/C (compound 0.0316 µM): 91.8% and 90.4% and 88.1%
- viability, T/C (compound 0.0999 µM): 80.6% and 91.5% and 75.3%
- viability, T/C (compound 0.316 µM): 78.1% and 72.3% and 73.5%
- IC50 (curve of compound): > 316 nM

SMILES: Nc1ccn(C2OC(CO)C(O)C2(F)F)c(=O)n1 (stereo not given)
- viability, T/C (compound 0.0316 µM): 87.9% and 88.9% and 93.4%
- viability, T/C (compound 0.1 µM): 66% and 76.8% and 74.1%
- viability, T/C (compound 0.316 µM): 61.7% and 70.3% and 61.1%
- viability, T/C (compound 1 µM): 51.8% and 55.9% and 40%
- viability, T/C (compound 3.16 µM): 41.4% and 48.6% and 40%
- viability, T/C (compound 10 µM): 40.8% and 39.7% and 38%
- IC50 (curve of compound): 993 nM and 2480 nM and 598 nM

SMILES: O=C(NO)c1cnc(N2CCN(S(=O)(=O)c3ccc4ccccc4c3)CC2)nc1
- viability, T/C (compound 0.0316 µM): 69.6% and 96.6% and 94.7%
- viability, T/C (compound 0.1 µM): 70.9% and 105% and 90%
- viability, T/C (compound 0.316 µM): 69.7% and 92.5% and 88.2%
- viability, T/C (compound 1 µM): 67% and 52.3% and 58.2%
- viability, T/C (compound 3.16 µM): 74.3% and 29.5% and 37.5%
- IC50 (curve of compound): > 10000 nM and 1340 nM and 1730 nM

SMILES: O=C(c1cc(Cc2n[nH]c(=O)c3ccccc23)ccc1F)N1CCN(C(=O)C2CC2)CC1
- viability, T/C (compound 0.0316 µM): 95.7% and 90.6% and 98.8%
- viability, T/C (compound 0.1 µM): 89.7% and 88.2% and 93.5%
- viability, T/C (compound 0.316 µM): 95.3% and 90.9% and 94%
- viability, T/C (compound 1 µM): 81.4% and 92.8% and 99.6%
- viability, T/C (compound 3.16 µM): 74% and 86.8% and 84%
- viability, T/C (compound 10 µM): 79.3% and 66.8% and 59%
- IC50 (curve of compound): > 10000 nM

SMILES: O=c1[nH]cc(F)c(=O)[nH]1
- viability, T/C (compound 0.0316 µM): 103% and 89.7% and 95.6%
- viability, T/C (compound 0.1 µM): 93.4% and 92.9% and 86.8%
- viability, T/C (compound 0.316 µM): 91% and 104% and 109%
- viability, T/C (compound 1 µM): 88% and 89.2% and 87.2%
- viability, T/C (compound 3.16 µM): 78.2% and 73.6% and 76.3%
- viability, T/C (compound 10 µM): 71.8% and 68.2% and 62.4%
- IC50 (curve of compound): > 10000 nM
